{"source": "ChEMBL document CHEMBL1147446", "about": "“Antagonists of human CCR5 receptor containing 4-(pyrazolyl)piperidine side chains. Part 3: SAR studies on the benzylpyrazole segment” (Bioorg Med Chem Lett, 2004)", "test_system": "HeLa", "assay": "Inhibition of HIV-1 infectivity using BAL-1 strain against HeLa cell line was determined", "format": "functional", "settings": "Homo sapiens", "data": [{"smiles": "CCn1nc(Cc2ccccc2)cc1C1CCN(C[C@H]2CN([C@@H](C(=O)O)C3CCCCC3)C[C@@H]2c2ccccc2)CC1", "values": [{"measurement": "IC90", "value": 0.4, "unit": "nM"}]}]}
